In paper PMC11305242 (Heliyon, 2024):

Experiments:
alpha-glucosidase = assay: Kinetics of alpha-glucosidase inhibition; assay type: biochemical, Saccharomyces cerevisiae; details: for mode of alpha-glucosidase inhibition: decreases in Vmax without changes in Km; for Vmax: substrate PNPG 0.25-2.0 mM
[1] = test system: advanced glycation end products (AGEs) formation (glycated BSA); assay: In vitro advanced glycation end products; assay type: biochemical; details: read-out: IC50 ± S.D. advanced glycation end product inhibitory activity, 37 °C, seven days in the dark, mean ± SD, n = 3, NA = no inhibitory activity
[2] = target: alpha-glucosidase enzyme from Saccharomyces cerevisiae recombinant; assay: In vitro alpha-glucosidase inhibition assay; assay type: biochemical; details: for IC50: read-out: IC50 ± S.D. alpha-glucosidase, mean ± SD, n = 3
[3] = target: alpha-amylase from Aspergillus oryzae (Aspergillus oryzae, UniProt P0C1B3); assay: In vitro alpha-amylase inhibition assay; assay type: biochemical

IC50 [1] [µM]	IC50 [2] [µM]	IC50 [3] [µM]	SMILES	other results
			C[C@H]1O[C@H](O[C@H]2[C@H](O)[C@@H](O)[C@@H](O[C@H]3[C@H](O)[C@@H](O)C(O)O[C@@H]3CO)O[C@@H]2CO)[C@H](O)[C@@H](O)[C@@H]1N[C@H]1C=C(CO)[C@@H](O)[C@H](O)[C@H]1O (stereo partly drawn) [Acarbose, acarbose, reference compound]	mode of alpha-glucosidase inhibition (alpha-glucosidase): non-competitive; Km (alpha-glucosidase; inhibitor 200 μM): 4.98 mM; Vmax (alpha-glucosidase; inhibitor 200 μM): 0.045 △OD/min; Km (alpha-glucosidase; inhibitor 400 μM): 4.96 mM; Vmax (alpha-glucosidase; inhibitor 400 μM): 0.030 △OD/min
168 ± 9.42	173 ± 5.84	257 ± 9.87	COc1cc(CCc2cc(OC)c(O)c(OC)c2)ccc1O [Compound 2, moscatilin]	
	62.5 ± 2.85	280 ± 9.76	COc1cc2c(c(O)c1OC)-c1ccc(O)cc1CC2 [Compound 3, ephemeranthol A]	
	231 ± 11.3	332 ± 4.23	COc1cc(O)cc(CCc2ccc(O)c(OC)c2)c1 [Compound 4, gigantol]	
	32.5 ± 1.04		COc1cc(O)cc2ccc3cccc(O)c3c12 [Compound 5, moscatin]	fold lower alpha-glucosidase IC50 than acarbose ([2]; IC50 relative to acarbose): approximately 10 fold; fold greater alpha-glucosidase inhibitory potency than acarbose (Ki) (alpha-glucosidase; Ki relative to acarbose): approximately 9 fold; mode of alpha-glucosidase inhibition (alpha-glucosidase): non-competitive; Km (alpha-glucosidase; inhibitor 30 μM): 1.62 mM; Vmax (alpha-glucosidase; inhibitor 30 μM): 0.017 △OD/min; Km (alpha-glucosidase; inhibitor 60 μM): 1.66 mM; Vmax (alpha-glucosidase; inhibitor 60 μM): 0.011 △OD/min; IC50 ± S.D. alpha-amylase ([3]; mean ± SD, n = 3, NA = no inhibitory activity): did not inhibit alpha-amylase activity
	63.89 ± 0.27	372.2 ± 2.74	COc1cc(O)c2c(c1)CCc1cc(O)ccc1-2 [Compound 6, lusianthridin]	
411 ± 15	422 ± 7	617 ± 11	Oc1ccc2c(c1)CCc1cc(O)cc(O)c1-2 [Compound 7, 2,4,7-trihydroxy-9,10-dihydrophenanthrene]	

SMILES	IC50 [1] [µM]	IC50 [2] [µM]	IC50 [3] [µM]	other results
N=C(N)NN [Aminoguanidine, aminoguanidine, reference compound]	327 ± 5.95			
